Some results are limits rather than exact numbers.

Our source for the IC50 values is EP4755888A1 (ILAb Co., Ltd., priority 2023, dated 2025).

For the assay, the target named is PD-1/PD-L1 (Homo sapiens, UniProt Q9NZQ7). Nature of the assay: TR-FRET PD-1/PD-L1 binding inhibition at the molecular level (free proteins). To be noted: Tag1-PD-L1 and Tag2-PD-1 proteins, twelve concentrations from 200 nM, 2 hours at room temperature, read-out: FRET assay (IC50). Put shortly: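 HTRF read-out at 665/620 nm after 2 h at room temperature. Detection used anti-Tag1 Eu cryptate plus anti-Tag2 XL665 antibodies. Tagged PD-L1 and PD-1 proteins were pre-mixed with compound across twelve […] 1:2 dilutions starting at 200 nM.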
Sequence of PD-1/PD-L1 (Q9NZQ7 19-238 limits assumed): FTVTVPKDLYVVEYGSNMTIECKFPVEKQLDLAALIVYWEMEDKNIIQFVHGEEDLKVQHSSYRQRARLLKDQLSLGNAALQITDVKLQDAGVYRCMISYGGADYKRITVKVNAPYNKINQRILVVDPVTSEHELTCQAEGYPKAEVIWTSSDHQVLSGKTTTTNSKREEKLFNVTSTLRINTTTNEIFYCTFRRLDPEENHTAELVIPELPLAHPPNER
Consider `OCCNC1CCCn2nc(-c3cccc(-c4cccc(Nc5nccc6cc(CN7CC[C@@H](O)C7)cnc56)c4Cl)c3Cl)cc21` (stereo partly drawn) [Compound 180, (3R)-1-((8-((2,2'-dichloro-3'-(4-((2-hydroxyethyl)amino)-4,5,6,7-tetrahydropyrazolo[1,5-a]pyridin-2-yl)-[1,1'-biphenyl]-3-yl)amino)-1,7-naphthyridin-3-yl)methyl)pyrrolidin-3-ol], for which the IC50 was less than 10 nM.
With `Cc1c(NC(=O)c2ccc(CNCCO)cn2)cccc1-c1cccc(NC(=O)c2cc3n(n2)CCCC3NC(C)(C)C(=O)O)c1C` (centres unmarked) [Compound 80, 2-((2-((3'-(5-(((2-hydroxyethyl)amino)methyl)picolinamido)-2,2'-dimethyl-[1,1'-biphenyl]-3-yl)carbamoyl)-4,5,6,7-tetrahydropyrazolo[1,5-a]pyridin-4-yl)amino)-2-methylpropanoic acid], the IC50 was less than 10 nM.
The result for `O=C(Nc1cccc(-c2cccc(NC(=O)c3cc4n(n3)CCCC4N3CCC(O)CC3)c2Cl)c1Cl)c1ccc(CN2CC[C@@H](O)C2)cn1` (stereo partly drawn) [Compound 106, N-(2,2'-dichloro-3'-(5-(((R)-3-hydroxypyrrolidin-1-yl)methyl)picolinamido)-[1,1'-biphenyl]-3-yl)-4-(4-hydroxypiperidin-1-yl)-4,5,6,7-tetrahydropyrazolo[1,5-a]pyridine-2-carboxamide] reads less than 10 nM.
Turning to `Cn1c(C(=O)Nc2cccc(-c3cccc(NC(=O)c4cc5n(n4)CCCC5N4CC[C@@H](C(=O)O)C4)c3Cl)c2Cl)nc2c1CCN(CCC13CCC(C(=O)O)(CC1)C3)C2` (stereo partly drawn) [Compound 57, (3R)-1-(2-((3'-(5-(2-(4-carboxybicyclo[2.2.1]heptan-1-yl)ethyl)-1-methyl-4,5,6,7-tetrahydro-1H-imidazo[4,5-c]pyridine-2-carboxamido)-2,2'-dichloro-[1,1'-biphenyl]-3-yl)carbamoyl)-4,5,6,7-tetrahydropyrazolo[1,5-a]pyridin-4-yl)pyrrolidine-3-carboxylic acid], the IC50 was less than 10 nM.
`O=C(O)CN[C@H]1CCCn2nc(C(=O)Nc3cccc(-c4cccc(Nc5nc(C(F)F)nc6cc(CN7CC[C@@H](O)C7)cnc56)c4Cl)c3Cl)cc21` (stereo in doubt) [Compound 294, 2-(((S)-2-((2,2'-dichloro-3'-((2-(difluoromethyl)-7-(((R)-3-hydroxypyrrolidin-1-yl)methyl)pyrido[3,2-d]pyrimidin-4-yl)amino)-[1,1'-biphenyl]-3-yl)carbamoyl)-4,5,6,7-tetrahydropyrazolo[1,5-a]pyridin-4-yl)amino)acetic acid]: the IC50 fell in the range of 10 to 100 nM.
Take `Cn1c(C(=O)Nc2cccc(-c3cccc(NC(=O)c4cc5n(n4)CCC[C@H]5N4CC[C@@H](C(=O)O)C4)c3Cl)c2Cl)nc2c1CCN(CCC13CCC(C(=O)O)(CC1)C3)C2` [Compound 308, (R)-1-((R)-2-((3'-(5-(2-(4-carboxybicyclo[2.2.1]heptan-1-yl)ethyl)-1-methyl-4,5,6,7-tetrahydro-1H-imidazo[4,5-c]pyridine-2-carboxamido)-2,2'-dichloro-[1,1'-biphenyl]-3-yl)carbamoyl)-4,5,6,7-tetrahydropyrazolo[1,5-a]pyridin-4-yl)pyrrolidine-3-carboxylic acid]: the IC50 is less than 10 nM.
Next, `Cc1c(NC(=O)c2cc3n(n2)CCCC3O)cccc1-c1cccc(Nc2nccc3cc(CN4CC[C@@H](O)C4)cnc23)c1C` (stereo partly drawn) [Compound 11, 4-hydroxy-N-(3'-((3-(((R)-3-hydroxypyrrolidin-1-yl)methyl)-1,7-naphthyridin-8-yl)amino)-2,2'-dimethyl-[1,1'-biphenyl]-3-yl)-4,5,6,7-tetrahydropyrazolo[1,5-a]pyridine-2-carboxamide]: less than 10 nM; `Cc1c(NC(=O)c2cc3n(n2)CCCC3NCC(=O)O)cccc1-c1cccc(Nc2nccc3cc(CN4CC[C@@H](O)C4)cnc23)c1C` (stereo partly drawn) [Compound 16, 2-((2-((3'-((3-(((R)-3-hydroxypyrrolidin-1-yl)methyl)-1,7-naphthyridin-8-yl)amino)-2,2'-dimethyl-[1,1'-biphenyl]-3-yl)carbamoyl)-4,5,6,7-tetrahydropyrazolo[1,5-a]pyridin-4-yl)amino)acetic acid]: less than 10 nM; `Cc1c(NC(=O)c2cc3n(n2)CCC[C@H]3N2CCC(C(=O)O)CC2)cccc1-c1cccc(Nc2nc(C(F)F)nc3cc(CN4CC[C@@H](O)C4)cnc23)c1C` [Compound 268, 1-((R)-2-((3'-((2-(difluoromethyl)-7-(((R)-3-hydroxypyrrolidin-1-yl)methyl)pyrido[3,2-d]pyrimidin-4-yl)amino)-2,2'-dimethyl-[1,1'-biphenyl]-3-yl)carbamoyl)-4,5,6,7-tetrahydropyrazolo[1,5-a]pyridin-4-yl)piperidine-4-carboxylic acid]: 10 to 100 nM.
The result for `COc1nc(-c2cccc(-c3cccc(NC(=O)c4cc5n(n4)CCCC5O)c3C)c2C)cnc1CNC[C@@H]1CCC(=O)N1` (stereo partly drawn) [Compound 110, 4-hydroxy-N-(3'-(6-methoxy-5-(((((S)-5-oxopyrrolidin-2-yl)methyl)amino)methyl)pyrazin-2-yl)-2,2'-dimethyl-[1,1'-biphenyl]-3-yl)-4,5,6,7-tetrahydropyrazolo[1,5-a]pyridine-2-carboxamide] reads less than 10 nM.
On to `CN[C@H]1CCCn2nc(C(=O)Nc3cccc(-c4cccc(Nc5nc(C(F)(F)F)nc6cccnc56)c4Cl)c3Cl)cc21` [Compound 356, (S)-N-(2,2'-dichloro-3'-((2-(trifluoromethyl)pyrido[3,2-d]pyrimidin-4-yl)amino)-[1,1'-biphenyl]-3-yl)-4-(methylamino)-4,5,6,7-tetrahydropyrazolo[1,5-a]pyridine-2-carboxamide], for which the IC50 lay in the range of 10 to 100 nM.
For `CN[C@@H]1CCCn2nc(C(=O)Nc3cccc(-c4cccc(Nc5nccc6cc(CN7CC[C@@H](O)C7)cnc56)c4C)c3C)cc21` [Compound 347, (R)-N-(3'-((3-(((R)-3-hydroxypyrrolidin-1-yl)methyl)-1,7-naphthyridin-8-yl)amino)-2,2'-dimethyl-[1,1'-biphenyl]-3-yl)-4-(methylamino)-4,5,6,7-tetrahydropyrazolo[1,5-a]pyridine-2-carboxamide], the IC50 was less than 10 nM.
On to `O=C(Nc1cccc(-c2cccc(Nc3nc(C(F)F)nc4cc(CN5CC[C@@H](O)C5)cnc34)c2Cl)c1Cl)c1cc2n(n1)CCC[C@@H]2N1CC(C(=O)O)C1` [Compound 261, 1-((S)-2-((2,2'-dichloro-3'-((2-(difluoromethyl)-7-(((R)-3-hydroxypyrrolidin-1-yl)methyl)pyrido[3,2-d]pyrimidin-4-yl)amino)-[1,1'-biphenyl]-3-yl)carbamoyl)-4,5,6,7-tetrahydropyrazolo[1,5-a]pyridin-4-yl)azetidine-3-carboxylic acid], for which the IC50 is less than 10 nM.
For the molecule `COc1cc(-c2cccc(-c3cccc(NC(=O)c4cc5n(n4)CCCC5O)c3Cl)c2Cl)cc(F)c1CNC[C@@H]1CCC(=O)N1` (stereo partly drawn) [Compound 119, N-(2,2'-dichloro-3"-fluoro-5"-methoxy-4"-(((((S)-5-oxopyrrolidin-2-yl)methyl)amino)methyl)-[1,1':3',1"-terphenyl]-3-yl)-4-hydroxy-4,5,6,7-tetrahydropyrazolo[1,5-a]pyridine-2-carboxamide], the IC50 lay within 10 to 100 nM.
